Experimental data reported in patent US10676431B2, “Phenylpyrrolidinone formyl peptide 2 receptor agonists” (BRISTOL-MYERS SQUIBB COMPANY, priority 2018, dated 2020).
pEC50: −log10 of the molar value.

How the values were obtained:
human FPR2 = human FPR2 (Homo sapiens (Human), UniProt P25090); assay: FPR2 cyclic adenosine monophosphate (cAMP) assay; assay type: cell-based; conditions: CHO cells overexpressing human FPR2; forskolin 5 μM, IBMX 200 μM; inhibition of cAMP production, HTRF; read-out: hFPR2 cAMP2 EC50
Experimental: (§1) FPR2 and FPR1 Cyclic Adenosine Monophosphate (cAMP) Assays. A mixture of forskolin (5 μM final for FPR2 or 10 μM final for FPR1) and IBMX (200 μM final) were added to 384-well Proxiplates (Perkin-Elmer) pre-dotted with test compounds in DMSO (1% final) at final concentrations in the range of 0.020 nM to 100 μM. Chinese Hamster Ovary cells (CHO) overexpressing human FPR1 or human FPR2 receptors were cultured in F-12 (Ham's) medium supplemented with 10% qualified FBS, 250 μg/ml zeocin and 300 μg/ml hygromycin (Life Technologies). Reactions were initiated by adding 2,000 human FPR2 cells per well or 4,000 human FPR1 cells per well in Dulbecco's PBS (with calcium and magnesium) (Life Technologies) supplemented with 0.1% BSA (Perkin-Elmer). The reaction mixtures were incubated for 30 min at room temperature. The level of intracellular cAMP was determined using the HTRF HiRange cAMP assay reagent kit (Cisbio) according to manufacturer's instruction. Solutions of cryptate conjugated anti-cAMP and d2 fluorophore-labelled cAMP were made in a supplied lysis buffer separately. Upon completion of the reaction, the cells were lysed with equal volume of the d2-cAMP solution and anti-cAMP solution. After a 1-h room temperature incubation, time-resolved fluorescence intensity was measured using the Envision (Perkin-Elmer) at 400 nm excitation and dual emission at 590 nm and 665 nm. A calibration curve was constructed with an external cAMP standard at concentrations ranging from 1 μM to 0.1 pM by plotting the fluorescent intensity ratio from 665 nm emission to the intensity from the 590 nm emission against cAMP concentrations. The potency and activity of a compound to inhibit cAMP production was then determined by fitting to a 4-parametric logistic equation from a plot of cAMP level versus compound concentrations.

human FPR1 = human FPR1 (Homo sapiens (Human), UniProt P21462); assay: FPR1 cyclic adenosine monophosphate (cAMP) assay; assay type: cell-based; conditions: CHO cells overexpressing human FPR1; forskolin 10 μM, IBMX 200 μM; inhibition of cAMP production, HTRF; read-out: hFPR1 cAMP EC50
Experimental: as §1, with “After a 1-h room temperature incubation, time-resolved fluorescence intensity was measured using the Envision (Perkin-Elmer) at 400 nm excitation and dual emission at 590 nm and 665 nm. A calibration curve was constructed with an external cAMP standard at concentrations ranging from 1 μM to 0.1 pM by plotting the fluorescent intensity ratio from 665 nm emission to the intensity from the 590 nm emission against cAMP concentrations.” left out

Sequence of human FPR1 (P21462 whole entry): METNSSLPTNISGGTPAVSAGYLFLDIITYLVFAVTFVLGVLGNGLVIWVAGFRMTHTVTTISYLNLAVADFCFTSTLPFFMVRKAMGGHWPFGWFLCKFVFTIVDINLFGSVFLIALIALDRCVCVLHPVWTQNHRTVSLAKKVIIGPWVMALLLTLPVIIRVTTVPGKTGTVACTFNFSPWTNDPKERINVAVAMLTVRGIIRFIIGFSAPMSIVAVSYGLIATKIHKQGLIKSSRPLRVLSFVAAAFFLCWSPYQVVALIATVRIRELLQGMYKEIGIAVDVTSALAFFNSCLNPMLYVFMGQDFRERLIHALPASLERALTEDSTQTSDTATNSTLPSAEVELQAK
Sequence of human FPR2 (P25090 whole entry): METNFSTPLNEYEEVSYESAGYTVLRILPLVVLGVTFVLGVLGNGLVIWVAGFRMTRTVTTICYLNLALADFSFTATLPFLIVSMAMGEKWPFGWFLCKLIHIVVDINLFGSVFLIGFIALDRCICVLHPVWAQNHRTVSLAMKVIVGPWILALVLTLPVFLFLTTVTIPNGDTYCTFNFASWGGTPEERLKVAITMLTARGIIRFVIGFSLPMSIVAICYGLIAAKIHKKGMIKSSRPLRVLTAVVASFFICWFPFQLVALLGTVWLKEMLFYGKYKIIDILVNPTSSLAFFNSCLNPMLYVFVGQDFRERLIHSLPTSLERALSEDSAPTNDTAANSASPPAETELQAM

| Compound | pEC50 (human FPR2) | pEC50 (human FPR1) |
| --- | --- | --- |
| CS(=O)(=O)c1ccccc1-c1ccc(N2CC[C@@H](NC(=O)Nc3ccc(Cl)cc3)C2=O)c(F)c1F [Example 10] | 8.66 | 6.89 |
| CS(=O)(=O)c1ccccc1-c1ccc(N2CC[C@@H](NC(=O)Nc3ccc(Cl)cc3F)C2=O)c(F)c1F [Example 7] | 8.68 | 6.85 |
| CC(C)c1cc(-c2ccccc2CO)ccc1N1CC[C@@H](NC(=O)Nc2ccc(Cl)cc2F)C1=O [Example 38] | 8.46 | 7.38 |
| CC(C)c1cc(-c2ccccc2P(C)(C)=O)ccc1N1CC[C@@H](NC(=O)Nc2ccc(Cl)cc2F)C1=O [Example 45] | 8.52 | 6.85 |
| N#Cc1ccccc1-c1ccc(N2CC[C@@H](NC(=O)Nc3ccc(Cl)cc3F)C2=O)c(F)c1F [Example 9] | 8.68 | 7.51 |
| CS(=O)(=O)Nc1ccccc1-c1ccc(N2CC[C@@H](NC(=O)Nc3c(F)cc(Cl)cc3F)C2=O)c(F)c1F [Example 4] | 9.03 | 5.77 |
| CP(C)(=O)c1ccccc1-c1cc(F)c(N2CC[C@@H](NC(=O)Nc3ccc(Cl)cc3F)C2=O)c(F)c1 [Example 53] | 8.11 | 5.57 |
| CS(=O)(=O)c1ccccc1-c1ccc(N2C(=O)[C@H](NC(=O)Nc3ccc(C(F)(F)F)cc3F)C[C@H]2CO)c(F)c1F [Example 39] | 9.24 | 7.24 |
| CC(C)c1cc(-c2ccccc2P(C)(C)=O)ccc1N1CC[C@@H](NC(=O)Nc2ccc(C(F)(F)F)cc2F)C1=O [Example 60] | 8.43 | 6.92 |
| CS(=O)(=O)Nc1ccccc1-c1ccc(N2CC[C@@H](NC(=O)Nc3ccc(Cl)cc3F)C2=O)c(F)c1F [Example 5] | 9.17 | 6.64 |
| CS(=O)(=O)Nc1ccccc1-c1ccc(N2CC[C@@H](NC(=O)Nc3ccc(Cl)cc3F)C2=O)c(F)c1 [Example 32] | 9.04 | 6.60 |
| CS(=O)(=O)c1ccccc1-c1ccc(N2CC[C@@H](NC(=O)Nc3ccc(Cl)cn3)C2=O)c(F)c1F [Example 24] | 7.66 | 5.85 |
| CC(C)c1cc(-c2ccccc2NS(C)(=O)=O)ccc1N1CC[C@@H](NC(=O)Nc2ccc(Cl)cc2F)C1=O [Example 27] | 9.30 | 6.96 |
| O=C(Nc1ccc(Cl)cc1F)N[C@@H]1CCN(c2ccc(-c3ccccc3F)c(F)c2F)C1=O [Example 21] | 7.51 | 6.41 |
| CP(C)(=O)c1ccccc1-c1ccc(N2CC[C@@H](NC(=O)Nc3ccc(Cl)cc3F)C2=O)c(F)c1F [Example 25, (R)-1-(4-chloro-2-fluorophenyl)-3-(1-(2′-(dimethylphosphoryl)-2,3-difluoro-[1,1′-biphenyl]-4-yl)-2-oxopyrrolidin-3-yl)urea] | 9.28 | 6.59 |
| CS(=O)(=O)Nc1ccccc1-c1ccc(N2CC[C@@H](NC(=O)Nc3ccc(C(F)(F)F)cc3F)C2=O)c(F)c1F [Example 33] | 8.96 | 6.33 |
| CCOP(C)(=O)c1ccccc1-c1ccc(N2CC[C@@H](NC(=O)Nc3ccc(Cl)cc3F)C2=O)c(F)c1F (stereo partly drawn) [Example 101] | 9.18 |  |
| COP(=O)(OC)c1ccccc1-c1ccc(N2CC[C@@H](NC(=O)Nc3ccc(C(F)(F)F)cc3F)C2=O)c(F)c1F [Example 108] | 8.85 |  |
| CCOP(C)(=O)c1ccccc1-c1ccc(N2CC[C@@H](NC(=O)Nc3ccc(C(F)(F)F)cc3F)C2=O)c(F)c1F (stereo partly drawn) [Example 105] | 8.16 |  |
| CCOP(C)(=O)c1ccccc1-c1ccc(N2CC[C@@H](NC(=O)Nc3ccc(C(F)(F)F)cc3F)C2=O)c(F)c1F (stereo partly drawn) [Example 104] | 8.28 |  |

Other lines, results leading:

| pEC50 (human FPR2) | pEC50 (human FPR1) | Compound |
| --- | --- | --- |
| 7.51 | 6.14 | CP(C)(=O)c1ccccc1-c1ccc(N2CC[C@@H](NC(=O)Nc3cnc(Cl)cn3)C2=O)c(C2CC2)c1 [Example 62] |
| 8.92 | 7.35 | CP(C)(=O)c1ccccc1-c1ccc(N2CC[C@@H](NC(=O)Nc3ccc(Cl)cc3F)C2=O)c(Cl)c1Cl [Example 78] |
| 8.66 | 6.85 | CP(C)(=O)c1ncccc1-c1ccc(N2CC[C@@H](NC(=O)Nc3ccc(Cl)cc3F)C2=O)c(F)c1F [Example 74] |
| 9.11 | 6.80 | CC1C[C@@H](NC(=O)Nc2ccc(C(F)(F)F)cc2F)C(=O)N1c1ccc(-c2cccnc2P(C)(C)=O)c(F)c1F (stereo partly drawn) [Example 120] |
| 7.52 | 6.27 | CP(C)(=O)c1ccccc1-c1ccc(N2C(=O)[C@@H](NC(=O)Nc3ccc(Cl)cc3F)C[C@H]2CO)c(F)c1F [Example 111] |
| 9.09 | 6.21 | CC1C[C@@H](NC(=O)Nc2ccc(Cl)cc2F)C(=O)N1c1ccc(-c2cccnc2P(C)(C)=O)c(F)c1F (stereo partly drawn) [Example 122] |
| 8.29 | 5.85 | COC[C@@H]1C[C@@H](NC(=O)Nc2ccc(C(F)(F)F)cc2F)C(=O)N1c1ccc(-c2ccccc2P(C)(C)=O)c(F)c1F [Example 90] |
| 8.96 | 6.19 | CC1(C)CN(c2ccc(-c3cccnc3P(C)(C)=O)c(F)c2F)C(=O)[C@@H]1NC(=O)Nc1ccc(C(F)(F)F)cc1F [Example 110] |
| 8.14 | 6.96 | O=C(Nc1ccc(C(F)(F)F)cc1F)N[C@@H]1CCN(c2ccc(-c3cccc4c3S(=O)(=O)NC4)c(F)c2F)C1=O [Example 97] |
| 8.60 | 2.82 | CP(C)(=O)c1ccccc1-c1ccc(N2CC[C@@H](NC(=O)Nc3cccc(Cl)c3)C2=O)c(F)c1F [Example 134] |
| 8.51 | 8.46 | CP(C)(=O)c1ccccc1-c1ccc(N2CC[C@@H](NC(=O)Nc3ccc(Cl)cc3F)C2=O)c2c1OC(F)(F)O2 [Example 106] |
| 8.92 | 7.10 | CP(C)(=O)c1ccccc1-c1ccc(N2CC[C@@H](NC(=O)Nc3ccc(C(F)(F)F)cc3F)C2=O)c(F)c1Cl [Example 77] |
| 8.82 | 6.62 | CP(C)(=O)c1ncccc1-c1ccc(N2C(=O)[C@H](NC(=O)Nc3ccc(C(F)(F)F)cc3F)C[C@H]2CO)c(F)c1F [Example 123] |
| 9.07 | 7.68 | CP(C)(=O)c1c(F)cccc1-c1ccc(N2CC[C@@H](NC(=O)Nc3ccc(C(F)(F)F)cc3F)C2=O)c(F)c1Cl [Example 86] |
| 9.21 | 8.29 | CP(C)(=O)c1c(F)cccc1-c1ccc(N2CC[C@@H](NC(=O)Nc3ccc(Cl)cc3F)C2=O)c(F)c1Cl [Example 85] |
| 8.47 | 5.93 | CCP(=O)(CC)c1ccccc1-c1ccc(N2CC[C@@H](NC(=O)Nc3ccc(Cl)cc3F)C2=O)c(F)c1F [Example 75] |
| 9.05 | 6.77 | CP(C)(=O)c1ncccc1-c1ccc(N2CC[C@@H](NC(=O)Nc3ccc(C(F)(F)F)cc3F)C2=O)c(F)c1F [Example 73, (R)-1-(1-(4-(2-(dimethylphosphoryl)pyridin-3-yl)-2,3-difluorophenyl)-2-oxopyrrolidin-3-yl)-3-(2-fluoro-4-(trifluoromethyl)phenyl)urea] |
| 8.92 | 6.05 | CC1C[C@@H](NC(=O)Nc2ccc(C(F)(F)F)cc2F)C(=O)N1c1ccc(-c2ccccc2P(C)(C)=O)c(F)c1F (stereo partly drawn) [Example 116] |
